Measurements taken from patent publication US20040214850A1, “1-glyoxylamide indolizines for treating cancer” (Synta Pharmaceuticals Corp., priority 2001, published 2004).

Key:
Format in all cases: cell-based
[1] = test system: MIP101 (human colon cancer); experiment: In vitro anti-cancer activity, MTS growth inhibition assay, MIP-101; conditions: MIP-101 cells, 72 hours
Protocol: (§1) The in vitro activity of the compounds was determined in the following seven human cancer cell lines. MDA435 (human breast cancer), MIP101 (human colon cancer), HL-60 (human myeloid leukemia), U937 (human leukemia), p388 (murine leukemia), DU-145 (human prostate cancer), MES-SA (human uterine sarcoma) were obtained from ATCC (American Type of Culture Collection).
(§2) The cell lines were maintained in RPMI1640 (GIBCO) supplemented with 10% FCS, 100 units/ml penicillin, 100 ug/ml streptomycin, and 2 mM L-glutamine. The cells were split every third day and diluted to a concentration of 2×10^5 cells/ml one day before experiment. All experiments were performed on exponentially growing cell culture. Cell densities were 2.5×10^4 cells/ml in all experiment.
(§3) A stock solution of Compound (1) and a stock solution of Taxol (positive control) were prepared by dissolving the compound at a concentration of 1 mM in 100% DMSO. Final concentrations were obtained by diluting the stock solution directly into the tissue culture medium. Cells were incubated with varying concentrations of the compounds for 72 hours and the IC50 was determined by MTS (i.e. 3-(4,5,-dimethylthiazol-2-yl)-2,5-diphenyl tetrazolium bromide) assay. IC50 stands for the concentration of compound required to inhibit 50% tumor cell growth.

p388 (murine leukemia) = experiment: In vitro anti-cancer activity, MTS growth inhibition assay, p388; conditions: Mus musculus, p388 cells, 72 hours
Protocol: as §1, §2, §3

[2] = test system: DU-145 (human prostate cancer); experiment: In vitro anti-cancer activity, MTS growth inhibition assay, DU-145; conditions: DU-145 cells, 72 hours, MTS assay (Table 1), read-out: IC50
Protocol: as §1, §2, §3
(§4) The protocol described in Examples 9-10 was used to assay inhibition by Compounds (20) (21) (24) and (28) on the growth of cancer cell lines MES-SA (human uterine sarcoma cell line) and DU-145 (human prostate cancer).

[3] = test system: MES-SA (human uterine sarcoma); experiment: In vitro anti-cancer activity, MTS growth inhibition assay, MES-SA; conditions: MES-SA cells, 72 hours, MTS assay (Table 1), read-out: IC50
Protocol: as §1, §2, §3, §4

[4] = test system: HL-60/TX1000 (multi-drug resistant human myeloid leukemia cell line); experiment: In vitro activity against multi-drug resistant cell line HL-60/TX1000; conditions: HL60/TX1000, HL-60/TX1000 MDR cells (Table 2)
Protocol: as §2, §3
(§5) In vitro activity was determined in two MDR (Multi Drug Resistant) human cancer cell lines. HL-60/TX1000 was isolated in vitro by subculturing HL-60 in progressively higher concentration of Taxol. HL-60/TX1000 cells over-express mdr-1 mRNA and p-glycoprotein, as determined by western blot and immunofluorescence labeling with antiPGP antibodies. The cell is cross-resistant to Taxol, Vincristine, Adriamycin, Etoposide and Doxorubicin. MES-SA/Dx5 was established in the presence of increasing concentrations of Doxorubicin. […] MES-SA/Dx5 was purchased from ATCC.
(§6) The procedure for culturing the cells and assaying cancer cell growth inhibition were as described in Example 3.

[5] = test system: MES-SA/DX5 (multi-drug resistant human uterine sarcoma cell line); experiment: In vitro activity against multi-drug resistant cell line MES-SA/DX5; conditions: MES-SA/Dx5, MES-SA/DX-5 MDR cells (Table 2)
Protocol: as §2, §3, §5, §6
The protocol described in Examples 9-10 was used to assay inhibition by Compounds (2)-(8) on the growth of the multidrug resistant cancer cell line MES-SA/DX5, which is a MDR uterine sarcoma cell line.

[6] = test system: seven cancer cell lines from different tissue types; experiment: Text summary: in vitro activity over the seven cancer cell lines of Table 1; conditions: range over the seven cell lines of Table 1; read-out: IC50 against seven cancer cell lines
Protocol: as §1, §2, §3

## Cc1cc(NC(=O)C(=O)c2cc(Cc3ccc(C#N)cc3)n3ccccc23)sn1 [Compound (1), 2-(3-(4-cyanobenzyl)-indolizin-1-yl)-N-(3-methyl-isothiazol-5-yl)-2-oxo-acetamide]
[1]
  IC50: 20 nM
p388 (murine leukemia)
  IC50: 10 nM
[2]
  IC50: 50 nM
[3]
  IC50: 10 nM
[4]
  IC50: 20 nM
[5]
  IC50: 50 nM
[6]
  IC50: 10 to 50 nM
